Experimental data as given in ChEMBL document CHEMBL1201862, “PubChem BioAssay data set” (2004).
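Interpolation was linear, between the two tested concentrations surrounding the appropriate level; five concentrations were tested over 48 hours in 96-well plates. The concentration for 50% growth inhibition is given as GI50.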 The source made the active and inactive calls. No stated cut-off is given here; in the data, active = GI50 up to about 1.1 µM and inactive = higher.

Assays:
Assay in all cases: inhibition of tumour cell growth, NCI panel, 48 h
CAKI-1 = system: CAKI-1
EKVX = system: EKVX
HOP-62 = system: HOP-62
KM12 = system: KM12
LOX IMVI = system: LOX IMVI
NCI-H226 = system: NCI-H226
NCI-H23 = system: NCI-H23
NCI/ADR-RES = system: NCI/ADR-RES
OVCAR-4 = system: OVCAR-4
OVCAR-5 = system: OVCAR-5
PC-3 = system: PC-3
SF-268 = system: SF-268
SF-295 = system: SF-295
SF-539 = system: SF-539
SK-MEL-28 = system: SK-MEL-28
SK-MEL-5 = system: SK-MEL-5
SN12C = system: SN12C
SR = system: SR
U-251 = system: U-251
UACC-62 = system: UACC-62

Measured: GI50

CC(C)OC(=O)C1(C(C)C)CCc2ccc(C(=O)CCC(=O)O)cc21 (stereo not given)
inactive: CAKI-1 > 100 µM | EKVX > 100 µM | HOP-62 > 100 µM | KM12 > 100 µM | LOX IMVI > 100 µM | NCI-H226 > 100 µM | NCI-H23 > 100 µM | NCI/ADR-RES > 100 µM | OVCAR-4 > 100 µM | OVCAR-5 > 100 µM | PC-3 > 100 µM | SF-268 > 100 µM | SF-295 > 100 µM | SF-539 > 100 µM | SK-MEL-28 > 100 µM | SK-MEL-5 > 100 µM | SN12C > 100 µM | SR > 100 µM | U-251 > 100 µM | UACC-62 > 100 µM

CC(C)C(/N=C/c1ccccc1O)C(=O)O (stereo not given)
inactive: CAKI-1 > 100 µM | EKVX > 100 µM | HOP-62 > 100 µM | KM12 > 100 µM | LOX IMVI > 100 µM | NCI-H226 > 100 µM | NCI-H23 > 100 µM | NCI/ADR-RES > 100 µM | OVCAR-4 > 100 µM | OVCAR-5 > 100 µM | PC-3 87.7 µM | SF-268 > 100 µM | SF-295 > 100 µM | SF-539 > 100 µM | SK-MEL-28 > 100 µM | SK-MEL-5 > 100 µM | SN12C > 100 µM | SR > 100 µM | U-251 > 100 µM | UACC-62 > 100 µM
